Experimental data published in the NIST ThermoML archive (doi:10.1021/je700648c).
Values joined by “and” are separate entries in the source; they are usually repeats but may differ in a detail not shown here. Equal entries are not always repeated. ± gives the expanded uncertainty stated by the source.

Columns and labels:
[1] = xn = mol fraction of the nth substance listed; conditions: 101 kPa, Liquid
[2] = 101 kPa, Liquid

CCn1cc[n+](C)c1.COCCOCCOS(=O)(=O)[O-] [1-ethyl-3-methylimidazolium 2-(2-methoxyethoxy) ethylsulfate] + CO
[1], 298.15 K
Conditions | speed of sound [m/s]
x2 = 0.1791 | 1677.6 ± 3.4
x2 = 0.356 | 1647 ± 3.8
x2 = 0.4548 | 1620 ± 4
x2 = 0.5356 | 1597.2 ± 4.2
x2 = 0.6298 | 1563.6 ± 4.5
x2 = 0.7412 | 1499.4 ± 4.8
x2 = 0.7987 | 1453.2 ± 4.9
x2 = 0.8527 | 1387.5 ± 5
x2 = 0.9011 | 1324.8 ± 5.2
x2 = 0.9298 | 1270.8 ± 5.2
x2 = 0.962 | 1201.2 ± 5.3
x2 = 0.9829 | 1158 ± 5.4

CO [methanol] + CCn1cc[n+](C)c1.O=S(=O)([N-]S(=O)(=O)C(F)(F)C(F)(F)F)C(F)(F)C(F)(F)F
[1], x1 = 1
Conditions | mass density [kg/m3]
298.15 K | 786.6 ± 4.2
303.15 K | 781.9 ± 4.2
313.15 K | 772.6 ± 4.2

CC(C)=O [acetone] + CCn1cc[n+](C)c1.O=S(=O)([N-]S(=O)(=O)C(F)(F)C(F)(F)F)C(F)(F)C(F)(F)F
[1], x1 = 1
Conditions | mass density [kg/m3]
298.15 K | 784.1 ± 1.2
303.15 K | 778.4 ± 1.2
313.15 K | 766.9 ± 1.2

CCn1cc[n+](C)c1.O=S(=O)([N-]S(=O)(=O)C(F)(F)C(F)(F)F)C(F)(F)C(F)(F)F + CO
mass density [kg/m3], [1]
Conditions | x2 = 0 | x2 = 0.0584 | x2 = 0.1116 | x2 = 0.1686 | x2 = 0.2956 | x2 = 0.5104 | x2 = 0.6083 | x2 = 0.706 | x2 = 0.8237 | x2 = 0.9033
298.15 K | 1593.2 ± 4.2 | 1586.2 ± 4.5 | 1579.4 ± 4.8 | 1571.3 ± 5.2 | 1549.7 ± 6.1 | 1494.6 ± 7.6 | 1455.3 ± 8.2 | 1398.9 ± 8.5 | 1285.9 ± 8.2 | 1148.2 ± 7
303.15 K | 1587.6 ± 4.1 | 1580.5 ± 4.5 | 1573.7 ± 4.8 | 1565.6 ± 5.2 | 1544 ± 6 | 1488.9 ± 7.5 | 1449.6 ± 8.1 | 1393.2 ± 8.4 | 1280.2 ± 8.1 | 1142.6 ± 6.9
313.15 K | 1576.7 ± 4.1 | 1569.5 ± 4.4 | 1562.6 ± 4.7 | 1554.5 ± 5.1 | 1532.8 ± 5.9 | 1477.7 ± 7.4 | 1438.3 ± 8 | 1382 ± 8.3 | 1269.3 ± 7.9 | 1132 ± 6.7

CCn1cc[n+](C)c1.O=S(=O)([N-]S(=O)(=O)C(F)(F)C(F)(F)F)C(F)(F)C(F)(F)F + CC(C)=O
mass density [kg/m3], [1]
Conditions | 298.15 K | 303.15 K | 313.15 K
x2 = 0 | 1593.2 ± 4.2 | 1587.3 ± 4.1 | 1576.7 ± 4.1
x2 = 0.0807 | 1576.8 ± 3.8 | 1571.1 ± 3.7 | 1560.2 ± 3.7
x2 = 0.1417 | 1563.1 ± 3.5 | 1557.4 ± 3.5 | 1546.4 ± 3.4
x2 = 0.2521 | 1534.6 ± 3 | 1528.8 ± 3 | 1517.7 ± 2.9
x2 = 0.2791 | 1526.6 ± 2.9 | 1520.8 ± 2.9 | 1509.6 ± 2.8
x2 = 0.415 | 1479.2 ± 2.4 | 1473.3 ± 2.4 | 1462.2 ± 2.3
x2 = 0.5195 | 1431.8 ± 2 | 1425.8 ± 2 | 1414.8 ± 2
x2 = 0.5676 | 1405.5 ± 1.9 | 1399.5 ± 1.9 | 1388.4 ± 1.8
x2 = 0.7092 | 1303.1 ± 1.5 | 1297.2 ± 1.5 | 1285.7 ± 1.4
x2 = 0.755 | 1258.2 ± 1.4 | 1252.2 ± 1.3 | 1240.8 ± 1.3
x2 = 0.8137 | 1188.4 ± 1.2 | 1182.5 ± 1.2 | 1170.8 ± 1.1
x2 = 0.8927 | 1062 ± 0.9 | 1055.9 ± 0.9 | 1044.3 ± 0.9
x2 = 0.9502 | 935 ± 0.9 | 929.1 ± 0.9 | 917.6 ± 0.9

CCn1cc[n+](C)c1.O=S(=O)([N-]S(=O)(=O)C(F)(F)C(F)(F)F)C(F)(F)C(F)(F)F
[2]
Conditions | mass density
298.15 K | 1593.2 ± 4.2 kg/m3
303.15 K | 1587.6 ± 4.1 kg/m3 and 1587.3 ± 4.1 kg/m3
313.15 K | 1576.7 ± 4.1 kg/m3

CC(C)=O [acetone]
[2]
Conditions | mass density [kg/m3]
298.15 K | 784.1 ± 1.2
303.15 K | 778.4 ± 1.2
313.15 K | 766.9 ± 1.2
